Data reported in patent US7560252B2, “Borrelidin-producing polyketide synthase and its use” (priority 2002, dated 2009).
Values after ≈ are worked out from the molar mass of the structure shown.

Tests used:
[1] = tested on: haploid and diploid cells; conditions: at concentrations that do not affect gross protein biosynthesis; cited from earlier work
caspase-3 = conditions: cited from earlier work
[2] = tested on: PC-3 cell lines of human prostate cancer; conditions: JP 9-227,549 and JP 8-173,167; cited from earlier work
[3] = tested on: WiDr cell lines of human colon cancer; conditions: JP 9-227,549 and JP 8-173,167; cited from earlier work
B16-BL6 melanoma cells = conditions: same dosage (1.8 mg/kg); cited from earlier work
[4] = tested on: human umbilical vein endothelial cells (HUVEC); conditions: cited from earlier work
[5] = tested on: Lewis lung adenocarcinoma; conditions: cited from earlier work
WiDr cells = conditions: 1.8 mg/kg by intraperitoneal injection; higher degree than TNP-470; cited from earlier work
capillary tube formation = conditions: rat aorta matrix culture model; cited from earlier work
caspase-8 = conditions: cited from earlier work
protein synthesis = conditions: cited from earlier work
S. albus J1074/pEM4A = assay: soaked disk bioassay, control strain; format: cell-based, Streptomyces albus J1074; conditions: disks with borrelidin at 100 & 200 μg/ml, Bennett's agar, overnight at 30° C.
From the text: The self-resistance of S. parvulus strains to borrelidin is most probably due to the product of borO, which encodes a threonyl tRNA synthetase homologue. Threonyl-tRNA synthetase is the molecular target of borrelidin in sensitive strains (Paetz & Ness, 1973). It is predicted that BorO is resistant to the action of borrelidin, and acts to produce threonyl-tRNAs in cells that make borrelidin, effectively complementing the normal threonyl-tRNA which are inhibited. To verify this hypothesis borO was amplified by PCR and cloned in to the expression vector pEM4A, which puts borO under the control of the strong constitutive promoter ermE* (example 26). The resulting vector pborOR was then transformed into the borrelidin-sensitive strain Streptomyces albus J1074 (Chater & Wilde, 1980).
Resistance to borrelidin was assayed on Bennett's agar containing apramycin at 25 μg/ml. Spores of S. albus J1074/pborOR and the control S. albus J1074/pEM4A were spread onto plates and then disks containing borrelidin at 100 & 200 μg/ml were laid upon the lawn of spores and incubated overnight at 30° C.

[6] = tested on: endothelial cell proliferation and endothelial capillary formation; conditions: with respect to borrelidin; cited from earlier work
[7] = tested on: mouse colon adenocarcinoma cells; conditions: subtoxic dose; cited from earlier work

C[C@@H]1C[C@H](C)C[C@H](C)[C@@H](O)CC(=O)O[C@H]([C@@H]2CCC[C@H]2C(=O)O)C/C=C/C=C(/C#N)[C@H](O)[C@@H](C)C1 [Borrelidin]
cell cycle arrest in late G1 phase [1]: arrests both haploid and diploid cells in late G1 phase | caspase-3 activation (caspase-3): activate | effectiveness against PC-3 cell lines [2]: effective | effectiveness against WiDr cell lines [3]: effective | inhibition of the formation of spontaneous lung metastases (B16-BL6 melanoma cells): effective | IC50 anti-proliferative activity towards HUVEC ([4]; cell growth assay): 6 ng/mL (≈ 12.3 nM) | anti-proliferative activity weaker than the anti-angiogenesis activity ([4]; measured in the same medium): 15 fold | propagation of metastatic nodules ([5]; after removal of the primary tumour): weakly inhibited | increment of vascular volume induced by WiDr cells (WiDr cells): significantly reduce the increment of vascular volume | IC50 (capillary tube formation): 0.8 nM | IC50 capillary tube formation (capillary tube formation): 0.4 ng/mL (≈ 0.817 nM) | caspase-8 activation (caspase-8): activate | IC50 for anti-angiogenesis activity lower than for inhibition of protein synthesis (protein synthesis; 0.4 ng/ml versus 20 ng/ml): 50 fold | IC50 inhibition of protein synthesis (protein synthesis; cultured rat cells): 20 ng/mL | haloes of growth inhibition (S. albus J1074/pEM4A): Haloes indicating inhibition of growth were observed

CC1CC(C)CC(C)C(O)C(C#N)=CC=CCC(C2CCCC2C(=O)OCCc2ccccn2)OC(=O)CC(O)C(C)C1 (stereo not drawn) [borrelidin-(2-pyridyl)-ethyl ester]
selectivity index, capillary formation inhibitory activity versus cell proliferation [6]: 7.5 fold

CC1CC(C)CC(C)C(O)CC(=O)OC(C2CCCC2C(=O)NCc2cccnc2)C(C#N)=CC=CCC(O)C(C)C1 (stereo not drawn) [borrelidin-(3-picolylamide)]
metastasis-forming ability of cells transplanted into mouse spleen [7]: considerably decreased | increase of micrometastases ([5]; rats, intraperitoneal and per os administration at subtoxic doses): inhibit very considerably

C[C@@H]1C[C@H](C)C[C@H](C)[C@@H](O)CC(=O)O[C@H]([C@@H]2CCC[C@H]2C(=O)NCCN2CCOCC2)C/C=C/C=C(/C#N)[C@H](O)[C@@H](C)C1 [borrelidin-morpholinoethyl amide]
selectivity index, capillary formation inhibitory activity versus cell proliferation [6]: 6 fold

C[C@@H]1C[C@H](C)C[C@H](C)[C@@H](O)CC(=O)O[C@H]([C@@H]2CCC[C@H]2C(=O)OCCN2CCOCC2)C/C=C/C=C(/C#N)[C@H](O)[C@@H](C)C1 [borrelidin-morpholinoethyl ester]
selectivity index, capillary formation inhibitory activity versus cell proliferation [6]: 60 fold

borrelidin-amide
selectivity index, capillary formation inhibitory activity versus cell proliferation [6]: 37 fold
